In US20220194959A1, “CRYSTAL FORM OF EGFR INHIBITOR AND PREPARATION METHOD THEREOF” (MEDSHINE DISCOVERY INC., priority 2019, published 2022):
Each block holds one compound with its values, some of them ahead of it.

Experiments:
Format in all cases: physicochemical
[1] = Solubility assay in media with different pHs; settings: for solubility at 2 h / solubility at 24 h: 37 °C, thermodynamic from solid; for Solubility (2 hours) / Solubility (24 hours): 37° C.; for Final pH: filtrate of saturated solution
Experimental: (§1) 9 parts of 4 mg of the crystal form A of the compound of formula (II) were weighed and added to a 1.5 mL sample bottle, respectively, and then 1 mL of different media (0.1 mol/L HCl, 0.01 mol/L HCl, pH3.8 buffer solution, pH4.5 buffer solution, pH5.5 buffer solution, pH6.0 buffer solution, pH6.8 buffer solution, pH7.4 buffer solution, and water) were added, respectively. Based on the dissolution situation, the raw material compound was continuously added until a saturated solution was formed. The magnetic bar was added to the above suspension, and the suspension was placed on a magnetic stirrer (37° C., protected from light) and stirred. […] The upper layer of the sample was filtered with a filter membrane, and the pH value of the filtrate was determined. The saturated solubility of the compound was determined by HPLC.
as §1, with “C” for “A”

[2] = Hygroscopicity study by dynamic vapor sorption (DVS)
Experimental: 1.4. Dynamic Vapor Sorption, DVS Method
Instrument model: SMS DVS Advantage dynamic vapor sorption apparatus
Test conditions: The sample (10 to 15 mg) is weighed and placed in a DVS sample pan for testing.
The detailed DVS parameters are as follows:
Equilibration: dm/dt=0.01%/min (The shortest time: 10 min, and the longest time: 180 min)
Drying: Dried for 120 min at 0% RH
RH (%) test gradient: 10%
Range of RH (%) test gradient: 0%-90%-0%
The classification of hygroscopicity evaluation is as follows:
10-15 mg of the crystal form A and the crystal form C of the compound of formula (II) were weighed and placed into a DVS sample pan for testing.

[3] = Stability assay under illumination, high humidity, high temperature and acceleration (related substances and crystal form); set-up: Total impurity: unit not given here; settings: for Change of crystal form: 10 days
Experimental: The stability of crystal form of the crystal form A and the crystal form C of the compound of formula (II) under the conditions of illumination, high humidity (92.5% RH), high temperature (60° C.) and acceleration (40° C./75% RH) was investigated.
Illumination test chamber, model: SHH-100GD-2, conditions: 5000±500 lux (visible light) and 90 mw/cm^2 (ultraviolet).
Electrothermal blowing dry box, model: GZX-9140MBE, conditions: 60° C.
Constant temperature and humidity chamber, model: LDS-800Y, conditions: 40° C./75% RH.
Constant temperature and humidity chamber, model: SHH-250SD, conditions: 25° C., 92.5% RH.
An appropriate amount of the crystal form A of the compound of formula (II) was weighed and placed in a dry and clean weighing bottle. The sample was spread into a thin layer, and fully exposed to assay conditions (60° C., 92.5% RH, illumination) and acceleration conditions (40° C./75% RH). After 17 days, the compound was taken out and determined for related substances and crystal form. […]

[4] = 0.1 mol/L HCl, pH 1, simulated gastric fluid
[5] = pH 6.8 buffer solution, pH 6.8, aqueous buffer
[6] = pH 7.4 buffer solution, pH 7.4, aqueous buffer

solubility at 2 h ([1]; 0.01 mol/L HCl, pH 2, simulated gastric fluid): 7440 µg/mL | solubility at 2 h [1, 4]: > 10000 µg/mL | solubility at 24 h [1, 4]: > 10000 µg/mL | solubility at 24 h ([1]; pH 5.5 buffer solution, pH 5.5, aqueous buffer): 1300 µg/mL | solubility at 2 h [1, 5]: 354 µg/mL | solubility at 24 h [1, 5]: 73 µg/mL | solubility at 2 h [1, 6]: 99 µg/mL | solubility at 24 h [1, 6]: 22 µg/mL | solubility at 24 h ([1]; water): 1140 µg/mL
Compound: COc1cc2ncnc(Nc3cccc(Cl)c3F)c2cc1N1CC2(CN(C)C2)OC1=O.Cc1ccc(S(=O)(=O)O)cc1

ΔW (weight increase by moisture absorption) ([2]; 25° C. and 80% RH): 3.697% | Classification of hygroscopicity ([2]; 25° C., 80% RH): hygroscopic | Solubility (2 hours) ([1]; 0.01 mol/L HCl): 5666 µg/mL | Solubility (24 hours) ([1]; 0.01 mol/L HCl): 2863 µg/mL | Solubility (2 hours) ([1]; 0.1 mol/L HCl): >10000 µg/mL | Solubility (24 hours) ([1]; 0.1 mol/L HCl): >10000 µg/mL | Solubility (conclusion) ([1]; buffer solutions below pH 6.8 and purified water): high solubility | Final pH ([1]; 0.01 mol/L HCl): 2.863 | Final pH ([1]; pH 3.8 buffer solution): 3.928 | Final pH ([1]; pH 4.5 buffer solution): 4.560 | Final pH ([1]; pH 5.5 buffer solution): 5.528 | Final pH ([1]; pH 6.0 buffer solution): 5.708 | Final pH ([1]; pH 6.8 buffer solution): 6.625 | Final pH ([1]; pH 7.4 buffer solution): 7.142 | Final pH ([1]; water): 5.444 | Evaluation of dissolution property ([1]; merged cell: 0.1 mol/L HCl, 0.01 mol/L HCl, pH 3.8, 4.5, 5.5, 6.0 buffer solutions and water): High solubility | Evaluation of dissolution property ([1]; merged cell: pH 6.8 and pH 7.4 buffer solutions): Low solubility | Solubility (2 hours) ([1]; pH 3.8 buffer solution): 1612 µg/mL | Solubility (24 hours) ([1]; pH 3.8 buffer solution): 1681 µg/mL | Solubility (2 hours) ([1]; pH 4.5 buffer solution): 1167 µg/mL | Solubility (24 hours) ([1]; pH 4.5 buffer solution): 1186 µg/mL | Solubility (2 hours) ([1]; pH 5.5 buffer solution): 916 µg/mL | Solubility (24 hours) ([1]; pH 5.5 buffer solution): 863 µg/mL | Solubility (2 hours) ([1]; pH 6.0 buffer solution): 699 µg/mL | Solubility (24 hours) ([1]; pH 6.0 buffer solution): 328 µg/mL | Solubility (2 hours) ([1]; pH 6.8 buffer solution): 260 µg/mL | Solubility (24 hours) ([1]; pH 6.8 buffer solution): 71 µg/mL | Solubility (2 hours) ([1]; pH 7.4 buffer solution): 81 µg/mL | Solubility (24 hours) ([1]; pH 7.4 buffer solution): 40 µg/mL | Solubility (2 hours) ([1]; water): 720 µg/mL | Solubility (24 hours) ([1]; water): 646 µg/mL | Stability compared with the crystal form D of the maleate of the compound of formula (I) [3]: better | Related substance at relative retention time 0.24 ([3]; 40° - 75% RH - 10 days): 0.03 | Related substance at relative retention time 0.69 ([3]; 40° - 75% RH - 10 days): 0.06 | Related substance at relative retention time 0.88 ([3]; 40° - 75% RH - 10 days): 0.04 | Related substance at relative retention time 0.92 ([3]; 40° - 75% RH - 10 days): 0.02 | Related substance at relative retention time 1.24 ([3]; 40° - 75% RH - 10 days): 0.14 | Related substance at relative retention time 1.30 ([3]; 40° - 75% RH - 10 days): 0.17 | Related substance at relative retention time 1.81 ([3]; 40° - 75% RH - 10 days): 0.03 | Total impurity ([3]; 40° - 75% RH - 10 days): 0.53 | Related substance at relative retention time 0.24 ([3]; 60° - 10 days): 0.02 | Related substance at relative retention time 0.69 ([3]; 60° - 10 days): 0.26 | Related substance at relative retention time 0.88 ([3]; 60° - 10 days): 0.03 | Related substance at relative retention time 1.24 ([3]; 60° - 10 days): 0.11 | Related substance at relative retention time 1.30 ([3]; 60° - 10 days): 0.17 | Related substance at relative retention time 1.81 ([3]; 60° - 10 days): 0.05 | Related substance at relative retention time 1.89 ([3]; 60° - 10 days): 0.05 | Total impurity ([3]; 60° - 10 days): 0.69 | Related substance at relative retention time 0.24 ([3]; 92.5% RH - 10 days): 0.02 | Related substance at relative retention time 0.69 ([3]; 92.5% RH - 10 days): 0.04 | Related substance at relative retention time 0.88 ([3]; 92.5% RH - 10 days): 0.02 | Related substance at relative retention time 1.24 ([3]; 92.5% RH - 10 days): 0.12 | Related substance at relative retention time 1.30 ([3]; 92.5% RH - 10 days): 0.17 | Total impurity ([3]; 92.5% RH - 10 days): 0.37 | Related substance at relative retention time 0.24 ([3]; Illumination - 10 days): 0.02 | Related substance at relative retention time 0.69 ([3]; Illumination - 10 days): 0.04 | Related substance at relative retention time 0.81 ([3]; Illumination - 10 days): 0.04 | Related substance at relative retention time 0.92 ([3]; Illumination - 10 days): 0.05 | Related substance at relative retention time 1.15 ([3]; Illumination - 10 days): 0.02 | Related substance at relative retention time 1.17 ([3]; Illumination - 10 days): 0.03 | Related substance at relative retention time 1.24 ([3]; Illumination - 10 days): 0.11 | Related substance at relative retention time 1.30 ([3]; Illumination - 10 days): 0.17 | Total impurity ([3]; Illumination - 10 days): 0.40 | Related substance at relative retention time 0.24 ([3]; Initial sample): 0.02 | Related substance at relative retention time 0.69 ([3]; Initial sample): 0.04 | Related substance at relative retention time 0.88 ([3]; Initial sample): 0.02 | Related substance at relative retention time 0.92 ([3]; Initial sample): 0.02 | Related substance at relative retention time 1.24 ([3]; Initial sample): 0.12 | Related substance at relative retention time 1.30 ([3]; Initial sample): 0.17 | Total impurity ([3]; Initial sample): 0.42 | Change of crystal form ([3]; acceleration (40° C./75% RH)): not changed | Change of crystal form ([3]; high humidity (92.5% RH)): not changed | Change of crystal form ([3]; high temperature (60° C.)): not changed | Change of crystal form ([3]; illumination): not changed
Compound: COc1cc2ncnc(Nc3cccc(Cl)c3F)c2cc1N1CC2(CN(C)C2)OC1=O.Cc1ccc(S(=O)(=O)O)cc1 [crystal form C of the compound of formula (II)]
Formation of degradation impurity (conclusion) ([3]; illumination, high temperature, high humidity, acceleration): produces a degradation impurity only under the condition of high temperature
